Assay results as given in publication PMC7765409 (International Journal of Molecular Sciences, 2020).

Tests used:
[1] = system: lipid droplet accumulation in TG/FA-treated hiPSC-Hep; test: hiPSC-Hep ER-stress (TG/FA) induced lipid droplet accumulation high-content assay, integrated spot signal (BODIPY 493/503); type: cell-based, human; details: Homo sapiens; for IC50: 10-point dose-response, pre-treatment then TG/FA 18 h, read-out: IC50, inhibition of lipid accumulation (integrated spot signal); for EC50: Figure S5 dose-response, read-out: EC50, inhibition of lipid droplet accumulation (black line: ISS)
Experimental: Cryopreserved hiPSC-derived hepatocytes (iCell Hepatocytes 2.0; Cellular Dynamics International Madison, WI) plated at a density of 36 K/well in 384-well on collagen I coated Corning Biocoat 384-well plates (BD Biosciences, 101306), were cultured to promote hepatic differentiation and maturation into hepatic-like cells as previously described. Hepatocytes were plated according to the manufacturer’s protocol in a volume of 50 µL/well using BioTek^TM Microflo^TM select dispenser (#7170011, BioTek Instruments) for high-throughput and high-content analysis assay (HT/HCA) drug discovery. After plating cells were cultured according to vendor specifications in a cell culture incubator at 37 °C, 5% CO2 for 3–4 h. Then, 40 µL spent medium was aspirated using multi-channel automated pipette handling system (Integra ViaFlo 96/384) and replaced with 40 µL (80% exchange) of fresh plating medium. Approximately 24 h post-plating 80% of medium was replaced every day thereafter. At day 5 of differentiation, 40 µL/well spent medium was replaced with maintenance medium (MM) consisting of William’s E medium (Thermo Fisher Scientific) supplemented with 0.1 µM dexamethasone and hepatocyte maintenance supplement pack (Thermo Fisher Scientific) for an additional 2–3 days before HCA. The overview of automated HT system for hiPSC-derived hepatocytes differentiation, staining and image analysis for phenotypic screening is depicted in Figure S2. Primary screening hit confirmation and dose response studies were performed on different batches of hiPSC-derived hepatocytes.
(§1) To induce hepatic triglycerides (TAG) accumulation, before staining, cells were treated with 20 μL of 2× FA mixture, consisting of different proportions of oleic acid (OA-BSA, 25 µM, Sigma, #O3008), palmitic acid (PA-BSA, 200 µM, Agilent Technologies, #102720100) and thapsigargin (TG, 1 µM, Abcam, #120286) with a total volume of 40 μL/well. The TG/FA mixture was dispensed with BioTek^TM Microflo^TM select dispenser (#7170011, BioTek Instruments) and incubated for 18 h. Next, to label TAG accumulation stored into cytoplasmic lipid droplets, upon treatment, living cells were washed two times with warm Dulbecco’s Phosphate-Buffered Saline 1X (PBS, Corning, #21-031CV) with a handheld 384-channel electronic pipette device and then incubated for 15 min with a lipophilic dye, BODIPY 493/503 (8 ug/mL Life technologies, #D3922-green), in PBS at 37 °C. BODIPY (493/503) has become the standard dye utilized by scientists to study lipid droplets in live cells. After three washes with PBS cells were fixed with 4% paraformaldehyde methanol-free (PFA, Electron Microscopy Science, #15710) in PBS for 15 min at room temperature (RT). Cell health was monitored by Hoechst 33342 (10 ug/mL, Molecular Probe, #H21492) staining in PBS for nuclear count. After TAG staining the 384-assay plates were loaded in an automated confocal microscope with Opera High Content Imaging System (PerkinElmer, Waltham, MA, USA). Dyes were excited and images were captured on the Hoechst 3342 and Alexa Fluor 488 channels and signals were collected with a long pass filter 410 and 505 nm, for nuclei and TAG, respectively, at objective 20× air objective for HCA. To capture enough cells (>600) for the analysis, eight fields per well were imaged. Hoechst 33342 fluorescence was used to identify the nuclear region and cell counts. To assess intracellular fat deposits, BODIPY 493/503 fluorescence intensity was measured inside the cytoplasm region.
For the HCA screen, compounds tested for their inhibitory effects, were used as single dose at a 10 μM final concentration of compound in DMSO in each well (0.1% DMSO) in 20 μL of maintenance medium. Prior to compound addition, 30 µL/well of medium was removed from hiPSC-Hep cells screening plates with ViaFlo ([…]). Pre-spotted 80 nL of 10 mM compound were diluted to 20 μM (0.2% DMSO) in 40 μL of maintenance medium in the source 384-well plate. […]

hiPSC-Hep = test: valid cell count (Hoechst nuclei) in hiPSC-Hep, multiplexed viability readout; type: cell-based; details: Homo sapiens; for IC50: 10-point dose-response, multiplexed with lipid readout
Experimental: as §1, with “region. […]” for “region.”

CDK1 = system: CDK1; design: method as in AstraZeneca data repository; details: median log of IC50/EC50/Ki/Kd annotations, highest value; ref AstraZeneca data repository; cited from earlier work
CDK2 = system: CDK2; design: method as in AstraZeneca data repository; details: median log of IC50/EC50/Ki/Kd annotations, highest value; ref AstraZeneca data repository; cited from earlier work
CDK4 = system: CDK4; design: method as in AstraZeneca data repository; details: median log of IC50/EC50/Ki/Kd annotations, highest value; ref AstraZeneca data repository; cited from earlier work

| IC50 [1] | EC50 [1] | SMILES | IC50 (hiPSC-Hep) | pXC50 CDK1 (CDK1) | pXC50 CDK2 (CDK2) | pXC50 CDK4 (CDK4) | EC50 (hiPSC-Hep; Figure S5 dose-response, read-out: EC50, viable cell count (red line)) |
| --- | --- | --- | --- | --- | --- | --- | --- |
| 0.32 µM | 0.32 µM | Cc1ncc(-c2nc(Nc3ccc(N4CCN(C(=O)CO)CC4)cc3)ncc2F)n1C(C)C [C3] | > 30 µM | 7.61 | 8.24 | 7.33 | – |
| 4.6 µM | 4.6 µM | CNC(=O)c1nn(C)c2c1C(C)(C)Cc1cnc(Nc3ccc(N4CCN(C)CC4)cc3)nc1-2 [C16, Milciclib] | 16.6 µM | 6.84 | 7.60 | 7.16 | 16.6 µM |
